Values after ≈ are worked out from the molar mass of the structure shown. Read-outs that look alike come from different tables or passages of the source. Peptide text beside a SMILES is read from it.
Key:
Helicobacterpylori SS1 = format: cell-based; settings: 4 h
Procedure: Bacterial strains were purchased from the American Type Culture Collection (ATCC). All clinical strains were isolated from human clinical specimens by the Medical Laboratory Center of Zhongda Hospital (Nanjing, Jiangsu, China). Ndm-1, tem-1, ctx-m-1, shv-1 -carrying bacteria were constructed as previously described. The recombinant bacteria carrying drug-resistant genes were prepared in LB nutrient and induced by IPTG (1 mM) for 4 h before text. Other bacterial strains were respectively prepared in MHB and Columbia Blood Agar Base.
A standard micro-broth serial dilution assay was used to measure MIC of peptides. MIC was obtained by a microplate reader at 600 nm. MBC was determined as previously described.

HaCaT cells = test: Wound scratch assay; format: cell-based; settings: cell scratch assay
Procedure: To further investigate whether MSI-1 could protect from bacterial infection of the skin, mice were anesthetized with pentobarbital sodium (50 mg/kg, i.p) and shaved on the dorsal surfaces. The depilated skin was secured with 2-cm-diameter plastic containers that filled up with boiling water at contact time 10 s. Afterwards, a full-thickness wound (2 cm in diameter) was cut on the burned skin of each mouse. Penicillin-resistant E. coli suspension (100 µl, 1× 10^10 CFU/ml) was slowly inoculated over wound with a pipette tip, and a gentle stream of air was aimed over the inoculation site until skin appeared wet but absent of any standing volume from the inoculum suspension. Two hours later, vehicle (3% CMC-Na), MSI-1 or polymyxin, which was suspended in sterile CMC-Na (3%) in PBS at concentration of 10, 5, 2.5 mg/ml (MSI-1) or 5 mg/ml (polymyxin), was inoculated on the same area with a pipette tip, 1 ml/kg, once a day (n=15 per group). Mice were fed in cages individually to avoid cross infection and were treated daily for 7 consecutive days. At 3rd and 7th days, cutaneous wound healing and bacteria counts in skin lesion were measured. Moreover, 12 h after the last treatment, blood samples were collected from the retro-orbital venous plexus under anesthesia (pentobarbital sodium, 50 mg/kg). […] The contents of TNF-α and IL-6 in skin homogenates and serum were measured by ELISA. […]

[1] = Calcein release from liposomes; settings: 4× MIC
Procedure: (§1) E. coli were mixed with different concentrations of MSI-1, incubated for 2 h, resuspended by PI solution (20 μg/ml), and ultimately subjected to flow cytometry for PI uptake assay. Calcein-loaded liposomes were prepared to imitate bacterial membrane. Serially diluted peptide was added into liposomes (1:1, v:v) after obtaining the fluorescence intensity at λex/λem=490/520 nm. Once MSI-1 addition, fluorescence intensity was detected at 0, 3, 5, 10, 15 and 20 min. Calcein release rate was calculated as previously described. To observe bacterial morphology, E. coli treated with MSI-1 (32 μg/ml) or PBS for 2 h was collected, fixed by 2.5% glutaraldehyde and subjected to scanning electron microscopy (SEM) assay (SUI510, Hitachi, Japan). In addition, E. coli were resuspended in reaction buffer (60 mM Na2HPO4^. 7H2O, 40 mM NaH2PO4^. H2O, 10 mM KCl, 1 mM MgSO4.7H2O, 0.27% 2-Mercaptoethanol), incubated with ONPG (2.5 mg/ml) and MSI-1 for 2 h. Bacteria envelope integrity was calculated by the percentage of O-nitrophenol production.

[2] = system: ndm-1-carrying recombinant E. coli; test: Time-killing assay; format: cell-based; settings: 4× MIC, time-kill curve
Procedure: (§2) Bacteria were incubated with MSI-1, penicillin G sodium salt, vancomycin or methicillin at 4× MIC. Samples were removed at 0, 0.5, 1, 2, 4, and 8 h for bacterial counts.

[3] = system: S. epidermidis (methicillin-resistant); test: Time-killing assay; format: cell-based; settings: 4× MIC, time-kill curve
Procedure: as §2

[4] = 20% fresh mouse serum, turbidimetry
Source text: At indicated time points, samples were denatured with equal volumes of 6 M urea and subjected to HPLC analysis or antibacterial activity evaluation.

E. coli [5] = test: PI uptake assay, flow cytometry; format: cell-based; settings: 4× MIC, 2 h
Procedure: as §1

E. coli [6] = test: ONPG assay, release of cytoplasmic β-galactosidase; format: cell-based; settings: 2 h
Procedure: as §1

[7] = system: penicillin resistant-E. coli isolates; test: Acute systemic E. coli infection in mice; format: in vivo, BALB/c mice; settings: for survival rate enhanced compared with the model group: doses 10, 5 and 2.5 mg/kg
Procedure: BALB/c mice (5-6 weeks) were purchased from the Laboratory Animal Center of Yangzhou University (Yangzhou, Jiangsu, China) and intraperitoneally (ip) injected with 500 μl (5× 10^8 CFU/ml) of penicillin resistant-E. coli isolates. Mice in MSI-1 treated groups (10, 5 and 2.5 mg/kg, n=16/group) and polymyxin treated group (5 mg/kg) were administered after 2 h post bacterial inoculation. After 12 h, six mice in each group were anesthetized with pentobarbital sodium (50 mg/kg body weight, i.p) and euthanized by cervical dislocation to count bacterial colonies in blood, lung, spleen, kidney and liver. Lung homogenates were collected for Gram staining. Moreover, serum TNF-α and IL-6 were measured by ELISA kits. The procedure of H&E staining for mouse lung was adapted from a published report. The survival and weight of other mice were monitored daily up to 7 days.

With `CC[C@H](C)[C@H](NC(=O)CN)C(=O)N[C@@H](Cc1c[nH]c2ccccc12)C(=O)N[C@@H](CCCCN)C(=O)N[C@@H](Cc1ccccc1)C(=O)N[C@@H](CC(C)C)C(=O)N[C@@H](CCCCN)C(=O)N[C@@H](CCCCN)C(=O)N[C@@H](C)C(=O)N[C@@H](CCCCN)C(=O)N[C@@H](CCCCN)C(=O)N[C@@H](Cc1ccccc1)C(=O)N[C@@H](Cc1c[nH]c2ccccc12)C(=O)N[C@@H](CCCCN)C(N)=O` [MSI-1] (H-GIWKFLKKAKKFWK-NH2) the MBC (Helicobacterpylori SS1) was 64 µg/mL (≈ 35.4 µM), the MIC (Helicobacterpylori SS1) was 32 µg/mL (≈ 17.7 µM) and the “migration of HaCaT cells” value (HaCaT cells) was “could not promote the migration”. The “leakage of Calcein” value [1] was “over 80%”, the “time to thorough elimination of the bacteria” value [2] was ≤ 4 h and the “reduction in CFU counts” value [3] was “approximately 5 log units”. The “time to thorough bacteria elimination” value [3] was ≤ 240 min, the “inhibition rate against bacteria after serum incubation” value ([4]; 0.5 h) was 76.8% and the “inhibition rate against bacteria after serum incubation” value ([4]; 2 h) was 46.9%. For the same molecule, the PI-positive rate (E. coli [5]) was 80.4%, the “activity in the supernatants (β-galactosidase release, relative to sonicated bacteria)” value (E. coli [6]; 2× MIC) was 36.7% and the “activity in the supernatants (β-galactosidase release, relative to sonicated bacteria)” value (E. coli [6]; 4× MIC) was 80.7%. The “reduction in CFU (blood and organs)” value ([7]; 10 mg/kg, 12 h) was “approximately 2 log unit”, the “decreased rates of serum IL-6 and TNF-α” value ([7]; 10 mg/kg, 12 h post-infection, ELISA) was 70%~80% and the body weight ([7]; 7 days, polymyxin 5 mg/kg) was “marked weight maintenance effect”. The “survival rate enhanced compared with the model group” value ([7]; first of three values, given 2 h post inoculation, 7 days) was 80%, the “survival rate enhanced compared with the model group” value ([7]; second of three values, 7 days) was 50% and the “survival rate enhanced compared with the model group” value ([7]; third of three values, 7 days) was 30%.

From article PMC6956804, “Potent antibacterial activity of MSI-1 derived from the magainin 2 peptide against drug-resistant bacteria” (Theranostics, 2020)
